Structures can show the parent of a compound that is named as a salt.
Key:
[1] = target: T1, Na^+ /H^+ Exchanger of Rabbit Erythrocytes (Oryctolagus cuniculus, UniProt P23791); assay: Inhibition of the Na^+ /H^+ Exchanger of Rabbit Erythrocytes (Na^+ influx by flame photometry); assay type: cell-based, rabbit (New Zealand White); details: cholesterol-fed rabbits, pH 7.4, 37° C.
T1 construct: The blood was removed from the aural arteries; endogenous in cells; host or cells: erythrocytes of cholesterol-fed New Zealand White rabbits (whole blood samples)
T1 sequence (P23791 whole entry): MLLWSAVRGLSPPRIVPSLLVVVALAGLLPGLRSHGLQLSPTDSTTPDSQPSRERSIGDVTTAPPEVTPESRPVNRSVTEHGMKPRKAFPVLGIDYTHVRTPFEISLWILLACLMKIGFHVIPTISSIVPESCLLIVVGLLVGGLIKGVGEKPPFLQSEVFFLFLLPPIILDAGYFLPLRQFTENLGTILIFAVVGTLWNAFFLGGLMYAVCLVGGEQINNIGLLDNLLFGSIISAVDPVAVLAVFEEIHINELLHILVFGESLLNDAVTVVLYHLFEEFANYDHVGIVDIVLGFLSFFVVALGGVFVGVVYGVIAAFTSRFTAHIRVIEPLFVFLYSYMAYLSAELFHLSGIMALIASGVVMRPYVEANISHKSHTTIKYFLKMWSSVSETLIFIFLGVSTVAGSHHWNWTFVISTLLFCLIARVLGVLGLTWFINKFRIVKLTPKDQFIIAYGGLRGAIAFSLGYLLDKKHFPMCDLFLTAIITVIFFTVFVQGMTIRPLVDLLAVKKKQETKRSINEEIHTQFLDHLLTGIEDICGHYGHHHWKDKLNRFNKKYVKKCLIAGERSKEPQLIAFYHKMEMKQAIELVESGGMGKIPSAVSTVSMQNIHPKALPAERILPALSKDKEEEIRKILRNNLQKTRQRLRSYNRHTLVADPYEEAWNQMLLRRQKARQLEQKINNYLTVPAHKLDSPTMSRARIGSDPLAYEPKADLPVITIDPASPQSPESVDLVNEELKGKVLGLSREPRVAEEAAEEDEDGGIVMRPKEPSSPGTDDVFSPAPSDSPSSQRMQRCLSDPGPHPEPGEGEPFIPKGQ
From the text: Inhibition of the Na^+ /H^+ Exchanger of Rabbit Erythrocytes
New Zealand White rabbits (Ivanovas) received a standard diet containing 2% cholesterol for six weeks in order to activate the Na^+ /H^+ exchange and thus to be able to determine, by flame photometry, the Na^+ influx into the erythrocytes via Na^+ /H^+ exchange. The blood was removed from the aural arteries and rendered incoagulable using 25 IU of potassium heparin. A part of each sample was used for the duplicate determination of the hematocrit by means of centrifugation. Aliquots of in each case 100 μl were used for measuring the initial Na^+ content of the erythrocytes.
In order to determine the amiloride-sensitive sodium influx, 100 μl of each blood sample were in each case incubated, at pH 7.4 and 37° C., in 5 ml of a hyperosmolar salt/sucrose medium (mmol/l: 140 NaCl, 3 KCl, 150 sucrose, 0.1 ouabain, 20 tris(hydroxymethyl)aminomethane). The erythrocytes were then washed three times with ice-cold MgCl2 /ouabain solution ([…]: 112 MgCl2, 0.1 ouabain) and hemolyzed in 2.0 ml of distilled water. The intracellular sodium content was determined by flame photometry.
The net influx of Na^+ was calculated from the difference between the initial sodium values and the sodium content of the erythrocytes following incubation. The amiloride-inhibitable sodium influx was calculated from the difference in the sodium content of the erythrocytes following incubation with and without amiloride 3×10^-4 mol/l. This method was also employed in the case of the compounds according to the invention.

[2] = system: cardiac arrhythmia; details: cited from earlier work
[3] = system: rat hearts; details: isolated rat hearts, cited from earlier work

IC50 [1] | SMILES | also measured
> 1000 nM | N=C(N)NC(=O)c1cccc(Cl)c1Cl [Example 1, 2,3-Dichlorobenzoylguanidine hydrochloride] | 
3000 nM | N=C(N)NC(=O)c1ccc(C(F)(F)F)cc1F [Example 4, 2-Fluoro-4-trifluoromethylbenzoylguanidine hydrochloride] | 
2000 nM | Cc1ccc(C)c(C(=O)NC(=N)N)c1 [Example 5, 2,5-Dimethylbenzoylguanidine hydrochloride] | 
1500 nM | N=C(N)NC(=O)c1cc(Cl)ccc1Cl [Example 6, 2,5-Dichlorobenzoylguanidine hydrochloride] | 
90 nM | N=C(N)NC(=O)c1cc(I)cc(C(F)(F)F)c1F [Example 10, 2-Fluoro-5-iodo-3-trifluoromethylbenzoylguanidine hydrochloride] | 

Continued, molecule first:

SMILES | IC50 [1] | also measured
N=C(N)NC(=O)c1cccc(C(F)(F)F)c1F [Example 2, 2-Fluoro-3-trifluoromethylbenzoylguanidine hydrochloride] | 2000 nM | 
N=C(N)NC(=O)c1ccc(Cl)cc1Cl [Example 3, 2,4-Dichlorobenzoylguanidine hydrochloride] | 8000 nM | 
N=C(N)NC(=O)c1cc(C(F)(F)F)ccc1C(F)(F)F [Example 7, 2,5-Bis(trifluoromethyl)benzoylguanidine hydrochloride] | 160 nM | 
N=C(N)NC(=O)c1cc(C(F)(F)F)ccc1F [Example 8, 2-Fluoro-5-trifluoromethylbenzoylguanidine hydrochloride] | 700 nM | 
N=C(N)NC(=O)c1cc(C(F)(F)F)ccc1Cl [Example 9, 2-Chloro-5-trifluoromethylbenzoylguanidine hydrochloride] | 160 nM | 
N=C(N)NC(=O)c1nc(Cl)c(N)nc1N [amiloride, Amiloride] |  | undesirable side effects when treating cardiac arrhythmia ([2]; accompanying the antiarrhythmic effect): hypotensive and saluretic effects; antiarrhythmic effect ([2]; as antiarrhythmic agent): only weakly expressed; suppression of artificially induced ventricular fibrillation [3]: completely suppress
CCN(c1nc(N)c(C(=O)NC(=N)N)nc1Cl)C(C)C [ethylisopropylamiloride, Ethylisopropylamiloride] |  | potency relative to amiloride in ventricular fibrillation model ([3]; compared with amiloride): even more potent than amiloride

— US5965744A, “Ortho-substituted benzoylguanidines, including composition and methods of using them” (priority 1993, dated 1999)
